The record followed here is patent publication US20100130737A1, “Regulating Agent of GPR34 Receptor Function” (TAKEDA PHARMACEUTICAL COMPANY LIMITED, priority 2005, published 2010).

Series [1] has as its system rat peritoneal mast cells. In words: Degranulation inhibiting activity in rat peritoneal mast cells (β-hexosaminidase release). In kind it is cell-based. Particulars: 10 μM compound; co-stimulation with 3 μM LysoPS and 100 ng/ml DNP-BSA = 100%, spontaneous degranulation = 0%. As for the experimental part: Ice-cooled mast cell medium (hereunder called MCM: 150 mM NaCl, 3.7 mM KCl, 3.0 mM NaH2PO4, 3.5 mM KH2PO4, 5.6 mM (D)-Glucose, 0.1% bovine serum albumin (BSA), 0.1% gelatin, 10 U/ml heparin, pH 6.8) was injected intraperitoneally into rats, about 40 ml per rat, the abdomens were massaged for about 2 minutes and then opened along the median line, and ascites was collected. The collected ascites were filtered with a cell strainer (Becton Dickinson) and centrifuged for 7 minutes at 50×g, and the precipitated cells were suspended in MCM and then centrifuged again for 7 minutes at 50×g. The precipitated cells were suspended in 5 ml of MCM, layered over 2 ml of 32% (w/v) BSA solution (dissolved in 0.9% NaCL), and left for 20 minutes at room temperature. This was centrifuged for 15 minutes at room temperature at 300×g, the cells between the MCM and BSA solution were discarded, and the precipitated cells were suspended in MCM and washed twice by being centrifuged for 5 minutes at 300×g. The precipitated cells were suspended in assay buffer (150 mM NaCl, 3.7 mM KCl, 3.0 mM NaH2PO4, 3.5 mM KH2PO4, 0.9 mM CaCl2, 5.6 mM (D)-Glucose, 0.01% BSA, pH 6.8), and these cells were used in the following test.
RPMC cells suspended in assay buffer were passively sensitized by adding 10 μg/ml of monoclonal mouse anti-DNP-IgE (Seikagaku) and leaving them for 30 minutes on ice. After 5 minutes of centrifugation at 300×g, the precipitated cells were washed 3 times with assay buffer. The RPMC cells suspended in assay buffer were dispensed on 96-well V-bottom plates, 2×10^4 cells per well. The assay was performed with n=3 under each set of reaction conditions. The plates were maintained for 5 minutes at 37° C., the test compound was added, and after 15 minutes lysoPS (Sigma) was added to a final concentration of 3 μM and DNP-BSA (Calbiochem) to a final concentration of 100 ng/ml for a final capacity of 200 and left on a water bath at 37° C. After 20 minutes, the plate was ice cooled to stop RPMC activation, followed by 5 minutes of centrifugation at 300×g, and β-hexosaminidase activity in the supernatant was measured using 4-methylumbelliferyl-2-acetamido-2-deoxy-β-D-glucopyranoside (Wako Pure Chemical) degradation as the indicator.

The next series addresses human GPR34 (Homo sapiens, UniProt Q9UPC5). In words: Human GPR34 antagonist activity indicated by changes in intracellular calcium concentration (FLIPR). In kind it is cell-based. More on the design: expressed in transfected cells; host or cells: CHO cells (human GPR34CHO line) stably transfected with pCR3.1 human lung Gα16. Particulars: CHO cells expressing human GPR34/Gα16, against 2 μM lysoPS final concentration, Fluo-3AM. As to the method:
CHO cells expressing human GPR34/Gα were diluted to 3×10^4/100 μl in cell culture medium [nucleic acid-free Minimum Essential Alpha Medium (Invitrogen) containing 10% dialyzed fetal bovine serum (Invitrogen) 0.5 mg/ml Geneticin (Invitrogen), penicillin and streptomycin (Invitrogen)], dispensed 100 μl per well into a Black walled 96-well plate (Costar), and cultured overnight in a CO2 incubator. Changes in intracellular calcium concentration were measured with a FLIPR (Molecular Device) by the methods described below.
50 μg of Fluo-3AM (Dojindo) was dissolved in 21 μl of DMSO (Dojindo), an equal amount of 20% pluronic acid (Molecular Probes) was added and mixed, and this was added to 10.6 ml of assay buffer [prepared by adding 20 ml of 1 M HEPES (pH 7.4, Dojindo) to HBSS (Invitrogen), and then adding 10 ml of a solution obtained by dissolving 710 mg of Probenecid (Sigma) in 5 ml of 1 N NaOH and then adding and mixing 5 ml of the HBSS/HEPES solution)] with 105 μl of fetal bovine serum added thereto to prepare a fluorescent dye solution. The medium was removed from the cell plate, 100 μl per well of the fluorescent dye solution was immediately poured in, and the cells were cultured for 1 hour in a CO2 incubator to incorporate the fluorescent dye into the cells. After culture, the cells were washed with the aforementioned assay buffer. The compound was dissolved in DMSO (Wako Pure Chemical), diluted with DMSO as necessary, added to the aforementioned assay buffer to the target concentration and poured into the plate. To measure antagonist activity, 8 μM lysophosphatidyl serine (lysoPS, Alexis) solution (2 μM final concentration during reaction) was poured into the plate, which was set in the FLIPR. Following these preliminaries, the agonist effect was measured in the FLIPR by measuring changes in intracellular calcium concentration up to 180 seconds after addition of the sample, and after 200 seconds lysoPS was added and the antagonist effect was measured. In the case of the agonist effect, the EC50 value of the added compound was calculated from the dose reaction curve using changes in fluorescent strength from 0 to 180 seconds after the start of the reaction. In the case of the antagonist effect, the IC50 was calculated from the dose reaction curve using changes in maximum fluorescent strength after 200 to 380 seconds of reaction time. The data was analyzed using “GraphPad PRISM4”.

Molecules are shown by their SMILES.

human GPR34, sequence (Q9UPC5 whole entry): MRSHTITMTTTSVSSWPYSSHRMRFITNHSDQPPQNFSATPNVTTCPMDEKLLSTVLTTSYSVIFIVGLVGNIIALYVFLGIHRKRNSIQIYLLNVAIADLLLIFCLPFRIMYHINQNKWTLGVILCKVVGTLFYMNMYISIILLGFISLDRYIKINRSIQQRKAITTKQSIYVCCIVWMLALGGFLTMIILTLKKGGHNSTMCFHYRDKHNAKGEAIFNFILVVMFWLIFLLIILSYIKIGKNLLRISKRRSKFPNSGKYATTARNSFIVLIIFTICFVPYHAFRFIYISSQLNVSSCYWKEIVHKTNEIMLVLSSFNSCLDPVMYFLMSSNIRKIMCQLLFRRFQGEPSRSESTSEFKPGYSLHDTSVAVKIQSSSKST

Turning to `COC(=O)CC(=O)NC1(C(=O)O)Cc2ccc(-c3ccc(Cl)cc3)cc2C1` (stereo not shown) [Example B13], in series [1], the “degranulation of rat peritoneal mast cells due to LysoPS and DNP-BSA stimulation” value (shortened to “degranulation”) turned out to be 10%.
For the molecule `O=C(Cc1ccc(OCc2ccccc2)cc1)NC1(C(=O)O)Cc2ccc(-c3ccc(Cl)cc3)cc2C1` (stereo not shown) [Example B174, 2-({[4-(Benzyloxy)phenyl]acetyl}amino)-5-(4-chlorophenyl)indan-2-carboxylic acid], the “degranulation” value in series [1] amounted to 8%.
`Cc1c(C(=O)N[C@@H](Cc2ccc(OCc3ccccc3)cc2)C(=O)O)oc2cc(-c3ccc(Cl)cc3)ccc12` [Example C115, O-Benzyl-N-{[6-(4-chlorophenyl)-3-methyl-1-benzofuran-2-yl]carbonyl}-L-tyrosine]: the melting point (usually the temperature of the solid-liquid transition) lay within 143 to 144 °C. Further, the “degranulation” value in series [1] amounted to 20%.
As for `CCCOc1ccc(-c2ccc3sc(C(=O)N[C@@H](Cc4ccc(OCc5ccc(F)cc5)cc4)C(=O)O)cc3c2)cc1` [Example C131, O-(4-Fluorobenzyl)-N-{[5-(4-propoxyphenyl)-1-benzothiophene-2-yl]carbonyl}tyrosine], the melting point lay within 211 to 212 °C. Also, the “degranulation” value in series [1] was 10.2%. Moreover, the IC50 (commonly the point on the concentration scale where inhibition reaches its midpoint) on human GPR34 is at most 1000 nM.
In turn, `O=C(N[C@@H](Cc1ccc(OCc2ccc(F)cc2)cc1)C(=O)O)c1cc2cc(-c3ccc(Cl)cc3)ccc2s1` [Example C133, N-{[5-(4-Chlorophenyl)-1-benzothiophene-2-yl]carbonyl}-O-(4-fluorobenzyl)tyrosine] came in with a melting point of 189 to 190 °C. Besides, the “degranulation” value in series [1] is 12.4%. Also, the IC50 at human GPR34 is at most 1000 nM.
`O=C(N[C@@H](Cc1ccc(OCc2ccc(F)cc2)cc1)C(=O)O)c1cc2ccc(-c3ccc(Cl)cc3)cc2o1` [Example C157, N-{[6-(4-Chlorophenyl)-1-benzofuran-2-yl]carbonyl}-O-(4-fluorobenzyl) tyrosine] showed a melting point of 166 to 168 °C. For the same molecule, the “degranulation” value in series [1] came to 4.8%. In addition, on human GPR34, the IC50 was at most 1000 nM.
`O=C(N[C@@H](Cc1ccc(OCc2ccccc2F)cc1)C(=O)O)c1cn2ccc(-c3ccc(Cl)cc3)cc2n1` [Example E47, N-{[7-(4-Chlorophenyl)imidazo[1,2-a]pyridin-2-yl]carbonyl}-O-(2-fluorobenzyl)tyrosine] showed a melting point of 250 to 252 °C. Further, on human GPR34, the IC50 is at most 1000 nM.
On to `O=C(N[C@@H](Cc1ccc(OCc2cccc(F)c2)cc1)C(=O)O)c1cn2ccc(-c3ccc(Cl)cc3)cc2n1` [Example E48, N-{[7-(4-Chlorophenyl)imidazo[1,2-a]pyridin-2-yl]carbonyl}-O-(3-fluorobenzyl)tyrosine], for which the melting point fell in the range of 248 to 250 °C. For the same molecule, the concentration for half-maximal inhibition (IC50) at human GPR34 was at most 1000 nM.
As for `O=C(N[C@@H](Cc1ccc(OCc2ccc(F)cc2)cc1)C(=O)O)c1cn2ccc(-c3ccc(Cl)cc3)cc2n1` [Example E49, N-{[7-(4-Chlorophenyl)imidazo[1,2-a]pyridin-2-yl]carbonyl}-O-(4-fluorobenzyl)tyrosine], the melting point was 255 to 257 °C. The IC50 on human GPR34 was at most 1000 nM.
The molecule `CN(C(=O)c1cn2ccc(-c3ccc(Cl)cc3)cc2n1)[C@@H](Cc1ccc(OCc2ccccc2)cc1)C(=O)O` [Example E51, O-Benzyl-N-{[7-(4-chlorophenyl)imidazo[1,2-a]pyridin-2-yl]carbonyl}-N-methyltyrosine] yielded a melting point of 222 °C. In series [1], the “degranulation” value turned out to be 5.0%. Further, the IC50 at human GPR34 was at most 1000 nM.
Molecule `O=C(N[C@@H](Cc1ccc(OCc2ccccc2)cc1)C(=O)O)c1cn2nc(SCc3ccccc3)ccc2n1` [Example E54, O-Benzyl-N-{[6-(benzylthio)imidazo[1,2-b]pyridazine-2-yl]carbonyl}tyrosine] yielded a melting point of 178 to 179 °C. Besides, the half-maximal inhibitory concentration (IC50) at human GPR34 is at most 1000 nM.
For the molecule `O=C(NC(Cc1ccc(OCc2ccccc2)cc1)C(=O)O)c1cn2cc(CCc3ccccc3)ccc2n1` (stereo not shown) [Example E57, O-Benzyl-N-{[6-(2-phenethyl)imidazo[1,2-a]pyridin-2-yl]carbonyl}tyrosine], the melting point was 239 °C (dec.). The “degranulation” value in series [1] was determined as 8.3%.
For `Cc1ccc(COc2ccc(C[C@H](NC(=O)c3cn4ccc(-c5ccc(Cl)cc5)cc4n3)C(=O)O)cc2)cc1` [Example E59, N-{[7-(4-Chlorophenyl)imidazo[1,2-a]pyridin-2-yl]carbonyl}-O-(4-methylbenzyl)tyrosine], the melting point turned out to be 262 °C. In series [1], the “degranulation” value is reported as 5.1%. Also, at human GPR34, the IC50 was at most 1000 nM.
The molecule `O=C(N[C@@H](Cc1ccc(OCc2ccc(Cl)cc2)cc1)C(=O)O)c1cn2ccc(-c3ccc(Cl)cc3)cc2n1` [Example E63, O-(4-Chlorobenzyl)-N-{[7-(4-chlorophenyl)imidazo[1,2-a]pyridin-2-yl]carbonyl}tyrosine] registered a melting point of 261 °C. Also, the “degranulation” value in series [1] turned out to be 5.7%. For the same molecule, the IC50 on human GPR34 was at most 1000 nM.
The molecule `N#Cc1ccc(COc2ccc(C[C@H](NC(=O)c3cn4ccc(-c5ccc(Cl)cc5)cc4n3)C(=O)O)cc2)cc1` [Example E64, N-{[7-(4-Chlorophenyl)imidazo[1,2-a]pyridin-2-yl]carbonyl}-O-(4-cyanobenzyl)tyrosine] showed a melting point of 263 °C. In addition, the IC50 on human GPR34 was at most 1000 nM.
Take `CCc1ccc(COc2ccc(C[C@H](NC(=O)c3cn4ccc(-c5ccc(Cl)cc5)cc4n3)C(=O)O)cc2)cc1` [Example E65, N-{[7-(4-Chlorophenyl)imidazo[1,2-a]pyridin-2-yl]carbonyl}-O-(4-ethylbenzyl) tyrosine]: the melting point amounted to 245 °C. The “degranulation” value in series [1] is given as 8.8%. The IC50 on human GPR34 was at most 1000 nM.
